The nature of data set [1]: Solubility of peptide compounds in buffer formulations (Table 5). The note with it: target 1 mg/ml. It counts as physicochemical. How it is done: Prior to the solubility measurement of a peptide batch, its purity was determined through UHPLC/MS method A.
For solubility testing the target concentration was 1 mg pure compound/ml. Therefore, solutions from solid samples were prepared in a buffer system at a concentration of 1 mg/mL compound. The solid samples were obtained by drying down aliquots of a freshly prepared dimethyl sulfoxide stock solution using a THERMO SPEEDVAC vacuum centrifuge. The dry down time was 3 hours.
The following buffer systems were applied: • Solubility buffer system A) 50 mM HCl pH 1.2 • Solubility buffer system B) 50 mM phosphate buffer pH 6.5 • Solubility buffer system C) 50 mM phosphate buffer pH 7.4 • UHPLC-UV was performed using analytical method A after 2 hours of gentle agitation from the filtered (0.45 μm filter plates) solutions, which were obtained by 10 mins of centrifugation forced filtration at 1500 RCF (relative centrifugal acceleration).
The solubility was determined by the comparison of the UV peak area of 2 μL-injections of a buffered sample diluted 1:10 with a standard curve of a dimethyl sulfoxide reference sample of known concentration. The different extinction coefficients were taken into account for the calculation.

The nature of data set [2]: Chemical stability (relative purity loss) of peptide compounds in buffer formulations (Table 6). The format is physicochemical. The conditions noted are these: 2° C. and 37° C. As for the experimental part: Purity of a peptide batch was determined through UHPLC/MS method A prior to chemical stability measurement.
For stability assessment, the target concentration was 0.5 mg pure compound/ml. Therefore, solutions from solid samples were prepared in a buffer system at a concentration of 0.5 mg/mL compound. The solid samples were obtained by drying down aliquots of a freshly prepared acetonitrile stock solution using a THERMO SPEEDVAC vacuum centrifuge. The dry down time was 3 hours.
The following buffer systems were applied: • Solubility buffer system A): 50 mM HCl pH 1.2+Acetonitrile (3:1). • Solubility buffer system B): 50 mM phosphate buffer pH 6.5+Acetonitrile (3:1). • Solubility buffer system C): 50 mM phosphate buffer pH 7.4+Acetonitrile (3:1). • Prepared solutions were stored for 24 hours at 2° C. and 37° C.
After this time course, the samples were centrifuged for 15 min at 2500 RCF to create a 1:5 dilution of the supernatant. Then 2 μl of the dilution were analyzed with UHPLC-UV applying method A.
The chemical stability was rated through the relative loss of purity calculated by the equation: […]

The nature of data set [3]: Protease stability in simulated intestinal fluids (FaSSIF) (Table 7). It counts as in vitro ADME. The conditions noted are these: fassif with pancreatin, 37° C.; for remaining at 1 h, 1 µM: 60 min, read-out: Remaining percentage of peptide compound, FaSSIF 60 (min); for remaining at 2 h, 1 µM: 120 min, read-out: Remaining percentage of peptide compound, FaSSIF 120 (min); for remaining at 4 h, 1 µM: 240 min, read-out: Remaining percentage of peptide compound, FaSSIF 240 (min). How it is done:
(§1) Studies were carried out in simulated intestinal fluid (SIF) and simulated gastric fluid (SGF) to evaluate gastric stability of the peptide compounds disclosed herein.
Similarly, the term “Pancreatin-SIF” refers to a solution of simulated intestinal fluid containing pancreatin whereas “SIF-media” refers to a solution of simulated intestinal fluid without pancreatin. Pancreatin-SIF was prepared by dissolving 1 mg Pancreatin (MP Biomedicals) in 10 mL SIF media concentrate (PROSENSE).
(§2) Peptide compounds were first dissolved at 1 mM stock concentration in 0.01 HCl (+/−10% of DMSO) and were than diluted further with water to a stock concentration of 20 μM. Final peptide concentration in the incubation was 1 μM.
(§3) To 76 μL of the Pepsin-SGF buffer, 4 μL of the 20 μM peptide stock solution was added and incubated at 37° C. At each timepoint (0, 60, 120 and 240 minutes) the reaction was quenched with addition of 80 μL Ethanol (0.1% HCOOH). The samples were centrifuged for 20 minutes and an aliquot of the supernatant 100 μL were transferred to a LoBind-MTP plate and analyzed by LCMS/MS. The peak area response was calculated at each time point for each test compound. As internal reference, the peak area response of the same test compound at T0 was calculated. The percentage remaining at each timepoint was calculated based on the peak area response ratio of the test compound at T0. Time 0 was set to 100%, and all later timepoints were calculated relative to time 0.

A short description of data set [4]: Protease stability in simulated gastric fluids (FaSSGF) (Table 7). It counts as in vitro ADME. The note with it: fassgf with pepsin, 60 min, 37° C., read-out: Remaining percentage of peptide compound, FaSSGF 60 (min). How it is done: as §1
For clarification, the term “Pepsin-SGF” refers to a solution of simulated gastric fluid containing pepsin whereas “SGF media” refers to a solution of simulated gastric fluid without pepsin. Pepsin-SGF was prepared by dissolving 320 mg Pepsin (Merck Millipore) in 100 mL SGF media concentrate (PROSENSE).
as §2
as §3, with “(0,1%” for “(0.1%”
as §3

The test system of data set [5] is IL-23 induced STAT3 signaling (IL-23 receptor) in HEK-Blue IL-23 cells. The data set is described as follows: Inhibition of IL-23 induced STAT3 signaling in HEK-Blue IL-23 cells, SEAP reporter (Table 9). The note with it: human IL23 0.25 ng/ml, overnight, read-out: Inhibition of IL-23 induced pSTAT3 (IC50 nM). It counts as cell-based. The source says: HEK-Blue™ IL-23 cells (INVIVOGEN) are designed for the detection of bioactive human (hIL-23) and murine IL-23 (mIL-23) by monitoring the activation of the STAT3 pathway. Binding of IL-23 to its receptor on the surface of HEK-Blue™ IL-23 cells triggers a signaling cascade leading to the activation of STAT3 and the subsequent production of secreted embryonic alkaline phosphatase (SEAP). This can be readily assessed using QUANTI-Blue™ Solution, a SEAP detection reagent.
HEK-Blue™ IL-23 cells were cultured as described by INVIVOGEN.
On the first day of assay 10 μL of the HEK-BLUE IL23 cell suspension (final concentration: 10,000 cells/well) and 10 μl of serially diluted peptides solutions were dispensed into a 384-well assay plate. After pre-incubation of the reaction mixtures at 37° C./5% CO2/95% humidity for 60 minutes, 10 μl of the humanIL23 cytokine (final concentration: 0.25 ng/ml) was added to each well for the STAT3 signaling activation. The plate was incubated overnight at 37° C./5% CO2/95% humidity.
On the second day 20 μl per well of QUANTI-BLUE detection solution (prepared according to the manufacture instruction) was dispensed into a new 384-well plate and followed by the transfer of 5 μl supernatant of the overnight incubated cell/sample mixtures. After incubation of 45 min at room temperature signals were measured with PHERASTAR (BMG) at OD 620-655 nm.
Dose response data were fitted with XLfit.

The mark [6] stands for this setting: Buffer pH 1.1 (head; method: 50 mM HCl pH 1.2), 2 h agitation, read-out: Solubility, Buffer pH 1.1.
Setting [7] is: aqueous buffer, 50 mM phosphate buffer pH 6.5, 2 h agitation, read-out: Solubility, Buffer pH 6.5.
Where [8] appears, read: aqueous buffer, 50 mM phosphate buffer pH 7.4, 2 h agitation, read-out: Solubility, Buffer pH 7.4.
Setting [9] is: 50 mM phosphate buffer pH 6.5 + acetonitrile (3:1), read-out: Chemical stability (relative purity loss), Buffer pH 6.5.
The mark [10] stands for this setting: 50 mM phosphate buffer pH 7.4 + acetonitrile (3:1), read-out: Chemical stability (relative purity loss), Buffer pH 7.4.
Setting [11] is: 50 mm hcl + acetonitrile, Buffer pH 1.1 (head; method: 50 mM HCl pH 1.2 + acetonitrile 3:1), read-out: Chemical stability (relative purity loss), Buffer pH 1.1.

Converted amounts (≈) assume the structure as drawn. Read-outs that look alike come from different tables or passages of the source. Numbered stars: 1 amine (or outer) side, 2 acyl side, 3 side chain; on linkers, the order of the positions; unused ones are H or OH. Bridge positions count the residues as written; N and C are the ends. Square brackets hold non-standard residues; d marks the D form. Peptide text beside a SMILES is read from it. * marks the point of attachment. Lys(Me,(CH2)4NMe(CH2)4CO) = CN(CCCCC(=O)[*:3])CCCCN(C)CCCC[C@H](N[*:1])C(=O)[*:2]; Trp(7-Me) = Cc1cccc2c(C[C@H](N)C(=O)O)c[nH]c12; Trp(1-Me) = Cn1cc(C[C@H](N)C(=O)O)c2ccccc21; αMeLys(Me2) = CN(C)CCCC[C@](C)(N)C(=O)O; 2Nal = N[C@@H](Cc1ccc2ccccc2c1)C(=O)O; 3Pal = N[C@@H](Cc1cccnc1)C(=O)O; Thp = NC1(C(=O)O)CCOCC1; Me2NCH2CH2 = CN(C)CC*; Aib = CC(C)(N)C(=O)O; Sar = CNCC(=O)O

In general, solubility refers to how much of the substance goes into solution per volume. Broadly, the fraction remaining is the share of the starting amount still present when the sample was taken. Broadly, the IC50 is the concentration needed to halve the response being measured. For `CN(C)CCOc1ccc(C[C@@H]2NC(=O)C3(CCOCC3)NC(=O)[C@H](CCC(N)=O)NC(=O)[C@H](Cc3c[nH]c4ccccc34)NC(=O)CCCCN(C)CCCCN(C)CCCC[C@@H](C(=O)N[C@@H](CO)C(=O)N[C@@H](Cc3cccnc3)C(=O)N(C)CC(N)=O)NC(=O)C(C)(C)NC(=O)[C@H](Cc3ccc4ccccc4c3)NC2=O)cc1` [compound 41] (WQ[Thp]Y(Me2NCH2CH2)[2Nal][Aib][Lys(Me,(CH2)4NMe(CH2)4CO)]S[3Pal][Sar]-NH2; lactam N-7), the values for the solubility at 2 h in data set [1] (setting [6]), in data set [1] (setting [7]) and in data set [1] (setting [8]) were at least 1020 µg/mL, at least 960 µg/mL and at least 1020 µg/mL, respectively. The degraded at 24 h in data set [2] (setting [9]) was 0%; in data set [2] (setting [10]), 0.4%; in data set [2] (setting [11]) it was 5.8%. Moreover, the share remaining at 1 h, 1 µM in data set [3] was 93%; in data set [4] it was 95%. Also, the share remaining at 2 h, 1 µM in data set [3] was 93%. Further, in data set [3], the share remaining at 4 h, 1 µM is 81%. In data set [5], the IC50 is 4 nM.

As to `CN(C)CCOc1ccc(C[C@@H]2NC(=O)C3(CCOCC3)NC(=O)[C@H](CCC(N)=O)NC(=O)[C@H](Cc3c[nH]c4ccccc34)NC(=O)CCCCN(C)CCCCN(C)CCCC[C@@H](C(=O)N[C@@H](CO)C(=O)N[C@@H](Cc3cccnc3)C(=O)N(C)CC(N)=O)NC(=O)C3(CCOCC3)NC(=O)[C@H](Cc3ccc4ccccc4c3)NC2=O)cc1` [compound 43] (WQ[Thp]Y(Me2NCH2CH2)[2Nal][Thp][Lys(Me,(CH2)4NMe(CH2)4CO)]S[3Pal][Sar]-NH2; lactam N-7), the solubility at 2 h in data set [1] (setting [6]) was at least 970 µg/mL; in data set [1] (setting [7]) it was at least 1050 µg/mL; in data set [1] (setting [8]), at least 1220 µg/mL. Also, the values for the degraded at 24 h in data set [2] (setting [9]), in data set [2] (setting [10]) and in data set [2] (setting [11]) were 0%, 0.7% and 5.2%, respectively. The figures for the amount remaining at 1 h, 1 µM in data set [3] and in data set [4] were 96% and 71%, respectively. Besides, the share remaining at 2 h, 1 µM in data set [3] was 84%. The fraction remaining at 4 h, 1 µM in data set [3] was 75%. Moreover, the IC50 in data set [5] came to 2.02 nM.

Take `CN(C)CCOc1ccc(C[C@@H]2NC(=O)C3(CCOCC3)NC(=O)[C@H](CCC(N)=O)NC(=O)[C@H](Cc3cn(C)c4ccccc34)NC(=O)CCCCN(C)CCCCN(C)CCCC[C@@H](C(=O)NCC(=O)N[C@@H](Cc3cccnc3)C(=O)N(C)CC(N)=O)NC(=O)C(C)(C)NC(=O)[C@H](Cc3ccc4ccccc4c3)NC2=O)cc1` [compound 30] ([Trp(1-Me)]Q[Thp]Y(Me2NCH2CH2)[2Nal][Aib][Lys(Me,(CH2)4NMe(CH2)4CO)]G[3Pal][Sar]-NH2; lactam N-7): the solubility at 2 h was at least 940 µg/mL in data set [1] (setting [6]), at least 890 µg/mL in data set [1] (setting [7]) and 840 µg/mL (≈ 533 µM) in data set [1] (setting [8]). Further, the degraded at 24 h was 0% in data set [2] (setting [9]), 0% in data set [2] (setting [10]) and 6.2% in data set [2] (setting [11]). In addition, the share remaining at 1 h, 1 µM in data set [3] is 88%; in data set [4] it was 98%. The amount remaining at 2 h, 1 µM in data set [3] is 87%. Also, the share remaining at 4 h, 1 µM in data set [3] is 82%. Also, the IC50 in data set [5] is 3.86 nM.

In the case of `CC(=O)NCCCC[C@@H]1NC(=O)[C@H](Cc2c[nH]c3c(C)cccc23)NC(=O)CCCCN(C)CCCCN(C)CCCC[C@@H](C(=O)N[C@@H](CC(N)=O)C(=O)N[C@@H](Cc2cccnc2)C(=O)N(C)CC(N)=O)NC(=O)[C@](C)(CCCCN(C)C)NC(=O)[C@H](Cc2ccc3ccccc3c2)NC(=O)[C@H](Cc2ccc(OCCN(C)C)cc2)NC(=O)C2(CCOCC2)NC1=O` [compound 47] ([Trp(7-Me)]K(Ac)[Thp]Y(Me2NCH2CH2)[2Nal][αMeLys(Me2)][Lys(Me,(CH2)4NMe(CH2)4CO)]N[3Pal][Sar]-NH2; lactam N-7), the values for the solubility at 2 h in data set [1] (setting [6]), in data set [1] (setting [7]) and in data set [1] (setting [8]) were at least 1200 µg/mL, at least 1150 µg/mL and at least 1170 µg/mL, respectively. The share remaining at 1 h, 1 µM in data set [3] was 97%; in data set [4], 98%. For the same compound, in data set [3], the fraction remaining at 2 h, 1 µM is 91%. In addition, in data set [3], the fraction remaining at 4 h, 1 µM is 91%. In addition, the IC50 in data set [5] was found to be 1.2 nM.

(Values after patent US20260297129A1, “PEPTIDES AS SELECTIVE IL-23 RECEPTOR INHIBITORS” (SANOFI, priority 2023, published 2026).)
